Read-outs that look alike come from different tables or passages of the source.
Columns and labels:
[1] = tested on: human fecal suspensions with gut microbiota; details: for Substrate recovered at the initial time point from the fecal suspensions: 0 hr, initial substrate dose 1 µmol; for Substrate amount in human fecal suspension: initial dose 1 µmol, 37°C anaerobic
Method: The column was a Zorbax SB‐C18 column (250 mm × 4.6 mm, 5.0 µm). […] Quantification of phenolic acids was carried out by an internal standard method using calibration curves. […] For each analytical run, a standard curve was prepared in the appropriate matrix (methanol, blank serum, urine, or feces) and used to determine the content of phenolic acids in chicory or biological samples. The detection limit for phenolic acids (10‐fold baseline noise) under the conditions used in this study was 1 ng/ml in serum and 5 ng/ml in urine and feces, and values below this concentration were reported as zero. […] Mycophenolic acid was selected as the internal standard.
Fresh feces (2 g) collected from human adults were mixed with 10 ml of brain–heart infusion medium, and the resulting solution was filtered with autoclaved gauze to remove the dregs before use. […] The mixture was fermented at 37°C under anaerobic conditions using the anaerobic chamber. […] All incubations were performed in triplicate. At the same time, the fecal suspension was incubated without phenolic acids as a negative control.

[2] = tested on: mouse gut microbiota; design: method as in Lin et al., 2016; details: ref Lin et al., 2016; cited from earlier work
[3] = Single-dose pharmacokinetic trial, serum protocatechuic acid and conjugates after 150 g of chicory; type: in vivo, human
Method: (§1) A single-dose pharmacokinetic trial was conducted to evaluate the acute (24 hr) bioavailability of protocatechuic acid from chicory juice. Qualified participants were asked to consume foods low in phytochemicals for three days prior to the chicory juice intervention. Participants were also asked to consume a diet without vegetables, fruits, and plant-based beverages for the day prior to the intervention and the intervention day. The purpose of these dietary restrictions was to reduce any residual dietary phenolic compounds from the body (these compounds are typically cleared from blood, urine, and feces within 48 hr of consumption) and to ensure phenolic compounds present in the blood, urine, and feces samples collected during the intervention were derived from the chicory juice alone. Prior to administering the chicory juice, overnight fasting blood, urine, and feces (first-morning void) were collected at time 0 hr as the baseline. A single dose of chicory juice (150 g of chicory) was then orally ingested by each of the participants under close observation by the researcher in 5 min. No other foods or beverages were provided at this time. The chicory juice was prepared together approximately 10 min prior to this pharmacokinetic trial. One portion of chicory juice was kept to quantify the content of protocatechuic acid. […] Fecal samples from 0-24 hr after chicory juice drinking were collected. […] Mycophenolic acid was selected as the internal standard. The pharmacokinetic parameters of protocatechuic acid in the free, glucuronide, and sulfate conjugates were calculated using DAS 2.1 (BioGuider Co.), with a noncompartmental model: maximum serum concentrations (Cmax); time to achieve maximum serum concentrations (Tmax); the area under the concentration-time curve to 24 hr (AUC0-24); and terminal elimination half-life (T1/2z). The apparent bioavailability of protocatechuic acid together was quantified using AUC0-24 divided by its ingested amount. Urinary and fecal recoveries were calculated using the total content of urinary and fecal protocatechuic acid divided by its ingested amount.

[4] = Urinary excretion/recovery of protocatechuic acid and conjugates after 150 g of chicory; type: in vivo, human
Method: as §1

[5] = Fecal excretion/recovery of protocatechuic acid and conjugates after 150 g of chicory; type: in vivo, human
Method: as §1

[6] = design: method as in Wang, Zou, et al., 2011; details: ApoE^‐/‐ mice, single oral gavage 25 mg/kg; ref Wang, Zou, et al., 2011; cited from earlier work
[7] = design: method as in Chen et al., (2012); details: CF‐1 mice, oral 50 mg/kg; ref Chen et al., (2012); cited from earlier work
[8] = tested on: human gut microbiota; design: method as in Gonthier et al., 2006; details: ref Gonthier et al., 2006; cited from earlier work

SMILES: O=C(/C=C/c1ccc(O)c(O)c1)O[C@@H]1C[C@@](O)(C(=O)O)C[C@@H](O)[C@@H]1O [5‐caffeoylquinic acid]
- Substrate recovered at the initial time point from the fecal suspensions [1]: 79.3 ± 5.7%
- Substrate amount in human fecal suspension ([1]; incubation time 0 h): 0.79 ± 0.06 µmol

SMILES: O=C(O)/C=C/c1ccc(O)c(O)c1 [Caffeic acid]
- Substrate recovered at the initial time point from the fecal suspensions [1]: 86.0 ± 3.0%
- Substrate amount in human fecal suspension ([1]; incubation time 0 h): 0.86 ± 0.03 µmol
- Substrate amount in human fecal suspension ([1]; incubation time 6 h): 0.16 ± 0.11 µmol

SMILES: O=c1c(O)c(-c2ccc(O)c(O)c2)oc2cc(O)cc(O)c12 [quercetin]
- Catabolism into protocatechuic acid by mouse gut microbiota [2]: intensively catabolized into protocatechuic acid

SMILES: O=c1cc(-c2ccc(O)cc2)oc2cc(O)cc(O)c12 [apigenin]
- Catabolism into protocatechuic acid by mouse gut microbiota [2]: intensively catabolized into protocatechuic acid

SMILES: O=C(O)c1ccc(O)c(O)c1 [PCA‐F, 3,4‐dihydroxybenzoic acid]
- T1/2z, terminal elimination half‐life ([3]; 16 healthy adults, 150 g of chicory oral, serum): 1.72 ± 0.35 h
- Recovery in blood circulation ([3]; 16 healthy adults, 150 g of chicory oral, AUC0‐24 divided by ingested amount): 15.60% ± 4.21%
- half-life ([3]; both sexes, human, serum, 16 healthy adults, 150 g of chicory oral, read-out: T1/2z in serum (converted)): 1.72 ± 0.35 h
- AUC(0-t) ([3]; both sexes, human, 16 healthy adults, 150 g of chicory oral, serum, read-out: AUC0−24, area under the concentration–time curve to 24 hr): 16.9 ± 3 µM·h
- Cmax ([3]; both sexes, human, 16 healthy adults, 150 g of chicory oral, serum, read-out: Maximum (peak) serum concentration, Cmax): 3.27 µM
- Tmax ([3]; both sexes, human, 16 healthy adults, 150 g of chicory oral, serum, read-out: Time of peak serum concentration): 1 h
- Ingested protocatechuic acid recovered in the blood circulation, urine, and feces together ([3]; both, human, in vivo, po): 48.74%
- Recovery in blood circulation ([3]; both, human, in vivo, po): about 23.79 % of the ingested dose
- AUC(0-t) ([3]; female, human, oral, women, n = 8, 150 g of chicory, serum, read-out: AUC0−24): 17.2 ± 1.81 µM·h
- Cmax ([3]; female, human, oral, women, n = 8, 150 g of chicory, serum, read-out: Cmax): 3.45 µM
- half-life ([3]; female, human, oral, women, n = 8, 150 g of chicory, serum, read-out: T1/2z (converted)): 1.81 ± 0.48 h
- Tmax ([3]; female, human, oral, women, n = 8, 150 g of chicory, serum, read-out: Tmax): 1 h
- AUC(0-t) ([3]; male, human, oral, men, n = 8, 150 g of chicory, serum, read-out: AUC0−24): 16.6 ± 1.63 µM·h
- Cmax ([3]; male, human, oral, men, n = 8, 150 g of chicory, serum, read-out: Cmax): 3.1 µM
- half-life ([3]; male, human, oral, men, n = 8, 150 g of chicory, serum, read-out: T1/2z (converted)): 1.63 ± 0.04 h
- Tmax ([3]; male, human, oral, men, n = 8, 150 g of chicory, serum, read-out: Tmax): 1 h
- Recovery in blood circulation ([3]; men, n = 8, 150 g of chicory): 17.18 ± 4.05 % of the ingested dose
- Recovery in blood circulation ([3]; women, n = 8, 150 g of chicory): 14.01 ± 3.74 % of the ingested dose
- Recovery in urine ([4]; 16 healthy adults, 150 g of chicory oral, 0-24 hr urine): 12.17 % of the ingested dose
- Time at which urinary excretion reached the plateau ([4]; 16 healthy adults, after chicory juice consumption): 6 h
- dose excreted ([4]; human, 150 g of chicory (as juice), 16 healthy adults, 150 g of chicory oral, 0-24 hr urine): 5.02%
- Recovery in urine ([4]; men, n = 8, 150 g of chicory): 5.66 ± 3.87 % of the ingested dose
- Recovery in urine ([4]; women, n = 8, 150 g of chicory): 4.38 ± 2.28 % of the ingested dose
- Recovery in feces ([5]; 16 healthy adults, 150 g of chicory oral, 0-24 hr feces): 12.79 % of the ingested dose
- Mean content in feces ([5]; 16 healthy adults, feces 0-24 hr after 150 g of chicory): 8.00 ± 3.17 µmol
- dose excreted ([5]; human, 150 g of chicory (as juice), 16 healthy adults, 150 g of chicory oral, 0-24 hr feces): 3.25%
- Recovery in feces ([5]; men, n = 8, 150 g of chicory): 2.52 ± 0.87 % of the ingested dose
- Recovery in feces ([5]; women, n = 8, 150 g of chicory): 3.97 ± 1.38 % of the ingested dose
- Formation of protocatechuic acid from gallic, caffeic, 5‐caffeoylquinic, caftaric or chicoric acid in human fecal suspensions ([1]; 1 µmol substrate, up to 24 hr, listed as protocatechuic acid): could not be detected
- Maximal level in plasma [6]: approximately 4.3 µM
- Peak plasma level [7]: 73.6 µM

SMILES: O=C(/C=C/c1ccc(O)c(O)c1)O[C@@H](C(=O)O)[C@@H](O)C(=O)O [Caftaric acid]
- Substrate recovered at the initial time point from the fecal suspensions [1]: 91.5% ± 4.7%
- Substrate amount in human fecal suspension ([1]; incubation time 0 h): 0.92 ± 0.05 µmol
- Generation of protocatechuic acid by human gut microbiota metabolism [8]: cannot generate protocatechuic acid

SMILES: O=C(O)c1cc(O)c(O)c(O)c1 [Gallic acid]
- Substrate recovered at the initial time point from the fecal suspensions [1]: 95.8 ± 3.3%
- Substrate amount in human fecal suspension ([1]; incubation time 0 h): 0.96 ± 0.03 µmol
- Substrate amount in human fecal suspension ([1]; incubation time 6 h): 0.75 ± 0.14 µmol
- Substrate amount in human fecal suspension ([1]; incubation time 12 h): 0.60 ± 0.18 µmol
- Substrate amount in human fecal suspension ([1]; incubation time 24 h): 0.27 ± 0.23 µmol
